Where two headings read alike, the source gives them in different places.
Key:
HSP72 in U2OS cells = experiment: Cell-based ELISA (Cellisa) assay, U2OS cells: inhibition of 17-AAG-induced HSP72; settings: U2OS cells (Examples 1-168)
Experimental: U2OS cells (5-8×10^4 cells/mL) or SK-OV-3 cells (5-8×10^4 cells/mL) were seeded into 96-well plates and incubated at 37° C. for 48 h. Compounds were then added at a range of concentrations and incubated for 1 h before addition of 17-AAG (250 nM). Cells were then incubated for 18 h. The medium was removed washed 2× with PBS and cells were then fixed with fixing solution (4% paraformaldehyde, 0.3% TritonX-100 in PBS) for 30 min at 4° C. The plates were then washed 2× with PBS before blocking with 5% milk for 30 min at 37° C. After washing the plates 4× with 0.1% Tween-20/deionised water, HSP72 antibody (SPA-810, Enzo Life) was added for 1.5 h at 37° C. Following 4× washes, the plates were incubated with europium-labelled anti-mouse antibody (0.6 ug/ml) in Delfia assay buffer (Perkin Elmer) for 1 h at 37° C. After washing the plates, Delfia enhancement solution was added, shaken for 10 min before reading in the Envision plate reader (Perkin-Elmer) with excitation at 340 nm and emission at 615 nm. The plates were washed again before protein determination using the bicinchoninic acid assay (BCA assay, Pierce Biotechnology). The europium counts were normalised for the amount of protein in each well. The 50% inhibitory concentration value of the compound was then calculated.

U2OS cells = experiment: Titre Blue cell viability assay, U2OS cells; type: cell-based

Compound	IC50 (HSP72 in U2OS cells; Homo sapiens) [nM]	IC50 (U2OS cells; Homo sapiens, U2OS) [nM]	IC50 (HSP72 in U2OS cells) [nM]	IC50 (U2OS cells) [nM]
Cc1ccc(NC(=O)c2ccc3c(c2)OCCO3)cc1NC(=O)c1ccc(OCc2ccccn2)cc1 [Example 19, N-(4-methyl-3-(4-(pyridin-2-ylmethoxy)benzamido)phenyl)-2,3-dihydrobenzo[b][1,4]dioxine-6-carboxamide]	289	320		
N-(5-(2,3-dihydrobenzo[b][1,4]dioxine-6-carboxamido)-2-methylphenyl)-34(2-methoxyethyl)amino)-2-(2-(pyrrolidin-1-yl)ethoxy)quinoline-6-carboxamide [Example 150]			98	86
Cc1ccc(NC(=O)c2ccc3c(c2)OCCO3)cc1NC(=O)c1ccc2ncncc2c1 [Example 10, N-(5-(2,3-dihydrobenzo[b][1,4]dioxine-6-carboxamido)-2-methylphenyl)quinazoline-6-carboxamide]	29	15		
Cc1ccc(NC(=O)c2ccc3c(c2)OCCO3)cc1NC(=O)c1ccc2nc(CCN3CCCC3)ccc2c1 [Example 59, N-(5-(2,3-dihydrobenzo[b][1,4]dioxine-6-carboxamido)-2-methylphenyl)-2-(2-(pyrrolidin-1-yl)ethyl)quinoline-6-carboxamide]	15	410		
Cc1ccc(NC(=O)c2ccc3c(c2)OCCO3)cc1NC(=O)c1ccc2sccc2c1 [Example 18, N-(3-(benzo[b]thiophene-5-carboxamido)-4-methylphenyl)-2,3-dihydrobenzo[b][1,4]dioxine-6-carboxamide]	62	34		
COc1c(C)cc(C(=O)Nc2cc(NC(=O)c3ccc4c(c3)OCCO4)ccc2C)cc1C [Example 42, N-(3-(4-methoxy-3,5-dimethylbenzamido)-4-methylphenyl)-2,3-dihydrobenzo[b][1,4]dioxine-6-carboxamide]	546	665		
O=C(Nc1ccc(Br)c(NC(=O)c2ccc3ncccc3c2)c1)c1ccc2c(c1)OCCO2 [Example 138, N-(2-bromo-5-(2,3-dihydrobenzo[b][1,4]dioxine-6-carboxamido)phenyl)quinoline-6-carboxamide]	31	10		
Cc1ccc(NC(=O)c2ccc3c(c2)OCCO3)cc1NC(=O)c1ccc2nc(OCCN3CC[C@H](F)C3)ccc2c1 [Example 65, (S)—N-(5-(2,3-dihydrobenzo[b][1,4]dioxine-6-carboxamido)-2-methylphenyl)-2-(2-(3-fluoropyrrolidin-1-yl)ethoxy)quinoline-6-carboxamide]	29	7		
Cc1ccc(NC(=O)c2ccc3c(c2)OCCO3)cc1NC(=O)c1ccc2nc(CN3CCN(C)CC3)ccc2c1 [Example 70, N-(5-(2,3-dihydrobenzo[b][1,4]dioxine-6-carboxamido)-2-methylphenyl)-2-((4-methylpiperazin-1-yl)methyl)quinoline-6-carboxamide]	59	92		
Cc1ccc(NC(=O)c2ccc3c(c2)OCCO3)cc1NC(=O)c1ccc2c(c1)CC(C)O2 (stereo not shown) [Example 14, N-(4-methyl-3-(2-methyl-2,3-dihydrobenzofuran-5-carboxamido)phenyl)-2,3-dihydrobenzo[b][1,4]dioxine-6-carboxamide]	81	94		
Cc1ccc(NC(=O)c2ccc3c(c2)OCCO3)cc1NC(=O)c1ccnc(-n2cncn2)c1 [Example 96, N-(5-(2,3-dihydrobenzo[b][1,4]dioxine-6-carboxamido)-2-methylphenyl)-2-(1H-1,2,4-triazol-1-yl)isonicotinamide]	4440	1350		
Cc1ccc(NC(=O)c2ccc3c(c2)OCCO3)cc1NC(=O)c1ccc2nc(OC(C)CN3CCCC3)ccc2c1 (stereo not shown) [Example 73, N-(5-(2,3-dihydrobenzo[b][1,4]dioxine-6-carboxamido)-2-methylphenyl)-2-((1-(pyrrolidin-1-yl)propan-2-yl)oxy)quinoline-6-carboxamide]	90	21		
Cc1ccc(NC(=O)c2ccc3c(c2)OCCO3)cc1NC(=O)c1ccc2cnc(OCCN3CCCC3)cc2c1 [Example 156, N-(5-(2,3-dihydrobenzo[b][1,4]dioxine-6-carboxamido)-2-methylphenyl)-3-(2-(pyrrolidin-1-yl)ethoxy)isoquinoline-6-carboxamide]	161	79		
Cc1ccc(NC(=O)c2ccc3c(c2)OCCO3)cc1NC(=O)c1ccc2c(c1)CCN2 [Example 84, N-(5-(2,3-dihydrobenzo[b][1,4]dioxine-6-carboxamido)-2-methylphenyl)indoline-5-carboxamide]	184	95		
Cc1ccc(NC(=O)c2ccc3c(c2)OCCO3)cc1NC(=O)c1ccc2c(c1)CCC(CN(C)C)N2 (stereo not shown) [Example 87, N-(5-(2,3-dihydrobenzo[b][1,4]dioxine-6-carboxamido)-2-methylphenyl)-2-((dimethylamino)methyl)-1,2,3,4-tetrahydroquinoline-6-carboxamide]	608	260		
tert-butyl (44(64(5-(2,3-dihydrobenzo[b][1,4]dioxine-6-carboxamido)-2-methylphenyl)carbamoyl)quinolin-2-yl)oxy)butyl)carbamate [Example 164]			1540	859
Cc1ccc(NC(=O)c2ccc3c(c2)OCCO3)cc1NC(=O)c1ccc(Nc2cccc(OC3CCN(C)CC3)c2)nc1 [Example 121, N-(5-(2,3-dihydrobenzo[b][1,4]dioxine-6-carboxamido)-2-methylphenyl)-6-(3-(1-methylpiperidin-4-yloxy)phenylamino)nicotinamide]		338		
Cc1ccc(NC(=O)c2ccc3c(c2)OCCO3)cc1NC(=O)c1ccc2nc(OCCN3CCCC3C)ccc2c1 (stereo not shown) [Example 61, N-(5-(2,3-dihydrobenzo[b][1,4]dioxine-6-carboxamido)-2-methylphenyl)-2-(2-(2-methylpyrrolidin-1-yl)ethoxy)quinoline-6-carboxamide]	16	18		
Cc1ccc(NC(=O)c2ccc3c(c2)OCCO3)cc1NC(=O)c1ccc2nc(C(F)(F)F)[nH]c2c1 [Example 90, N-(5-(2,3-dihydrobenzo[b][1,4]dioxine-6-carboxamido)-2-methylphenyl)-2-(trifluoromethyl)-1H-benzo[d]imidazole-6-carboxamide]		1360		
Cc1ccc2cc(C(=O)Nc3cc(NC(=O)c4ccc5c(c4)OCCO5)ccc3C)ccc2c1 [Example 108, N-(4-methyl-3-(6-methyl-2-naphthamido)phenyl)-2,3-dihydrobenzo[b][1,4]dioxine-6-carboxamide]	483			
Cc1ccc(NC(=O)c2ccc3c(c2)OCCO3)cc1NC(=O)c1ccc2ncsc2c1 [Example 114, N-(5-(2,3-dihydrobenzo[b][1,4]dioxine-6-carboxamido)-2-methylphenyl)benzo[d]thiazole-6-carboxamide]	35			
Cc1ccc(NC(=O)c2ccc3c(c2)OCCO3)cc1NC(=O)c1ccc(N)nc1 [Example 104, 6-amino-N-(5-(2,3-dihydrobenzo[b][1,4]dioxine-6-carboxamido)-2-methylphenyl)nicotinamide]	482			
Cc1ccc2cc(C(=O)Nc3cc(NC(=O)c4ccc5c(c4)OCCCO5)ccc3C)ccc2n1 [Example 132, N-(5-(3,4-dihydro-2H-benzo[b][1,4]dioxepine-7-carboxamido)-2-methylphenyl)-2-methylquinoline-6-carboxamide]	226			
Cc1ccc(NC(=O)c2ccc3c(c2)OCCO3)cc1NC(=O)c1ccc(OCc2cncs2)cc1 [Example 20, N-(4-methyl-3-(4-(thiazol-5-ylmethoxy)benzamido)phenyl)-2,3-dihydrobenzo[b][1,4]dioxine-6-carboxamide]	1480			
Cc1ccc(NC(=O)c2ccc3c(c2)OCCO3)cc1NC(=O)c1cc(N(C)CCN(C)C)c2ncccc2c1 [Example 162, N-(5-(2,3-dihydrobenzo[b][1,4]dioxine-6-carboxamido)-2-methylphenyl)-8-((2-(dimethylamino)ethyl)(methyl)amino)quinoline-6-carboxamide]	984			
Cc1ccc(NC(=O)c2ccc3c(c2)OCCO3)cc1NC(=O)c1ccc2nc(N3CCN(C)CC3)ccc2c1 [Example 74, N-(5-(2,3-dihydrobenzo[b][1,4]dioxine-6-carboxamido)-2-methylphenyl)-2-(4-methylpiperazin-1-yl)quinoline-6-carboxamide]	232			
Cc1ccc(NC(=O)c2ccc3c(c2)OCCO3)cc1NC(=O)c1ccc2ccncc2c1 [Example 2, N-(5-(2,3-dihydrobenzo[b][1,4]dioxine-6-carboxamido)-2-methylphenyl)isoquinoline-7-carboxamide]	7			
CCc1ccc2cc(C(=O)Nc3cc(NC(=O)c4ccc5c(c4)OCCO5)ccc3C)ccc2n1 [Example 77, N-(5-(2,3-dihydrobenzo[b][1,4]dioxine-6-carboxamido)-2-methylphenyl)-2-ethylquinoline-6-carboxamide]	26			
Cc1ccc(NC(=O)c2ccc3c(c2)OCCO3)cc1NC(=O)c1ccc2nc(N3CCOCC3)ccc2c1 [Example 32, N-(5-(2,3-dihydrobenzo[b][1,4]dioxine-6-carboxamido)-2-methylphenyl)-2-morpholinoquinoline-6-carboxamide]	665			

Source: patent US9701664B2, “Fused 1,4-dihydrodioxin derivatives as inhibitors of heat shock transcription factor 1” (Cancer Research Technology Limited, priority 2013, dated 2017)
